Measured values: ChEMBL document CHEMBL3832066, “DailyMed|setid=891194e8-7083-4438-8d27-c72f2372e40f | ISOSORBIDE MONONITRATE - isosorbide mononitrate tablet, extended release|Mckesson Contract Packaging”
Values joined by “and” are separate entries in the source; they are usually repeats but may differ in a detail not shown here. Identical values can stand only once.

Assays:
Type in all cases: ADME, organism-based
[1] = (§1) Pharmacokinetic parameters for Isosorbide mononitrate after single oral dose administration of 60 mg Isosorbide mononitrate solution or table to subjects.; design: dose 60 mg, route oral; details: human, in vivo, dosed compound id 10, dosed compound name ISOSORBIDE MONONITRATE, regimen Single dose, tissue Plasma
Homo sapiens [2] = assay: as §1; design: dose 60 mg, route oral; details: in vivo, po, dosed compound id 10, dosed compound name ISOSORBIDE MONONITRATE, regimen Single dose, tissue Plasma
[3] = (§2) Pharmacokinetic parameters for Isosorbide mononitrate after multiple oral dose administrations of 60 and 120 mg Isosorbide mononitrate tablets to subjects; design: dose 120 mg, dose 60 mg, route oral; details: human, in vivo; dose 60 mg, dosed compound id 10, dosed compound name ISOSORBIDE MONONITRATE, regimen Multiple dose, route oral, tissue Plasma
Homo sapiens [4] = assay: as §2; design: dose 120 mg, dose 60 mg, route oral; details: in vivo, po, dosed compound id 10, dosed compound name ISOSORBIDE MONONITRATE, regimen Multiple dose, tissue Plasma

SMILES: O=[N+]([O-])O[C@@H]1CO[C@H]2[C@@H]1OC[C@@H]2O [ISOSORBIDE MONONITRATE]
- AUC ([1]; po, 60 mg): 5990 to 7450 ng·h/mL
- CL/F ([1]; dose 60 mg, route oral): 151 to 187 mL/min
- half-life ([1]; dose 60 mg, route oral): 6.3 to 6.6 h
- CL/F (Homo sapiens [2]; dose 60 mg): 120 to 122 mL/min
- t1/2 (Homo sapiens [2]; dose 60 mg): 4.8 to 5.1 h
- AUC (Homo sapiens [2]): 8190 to 8310 ng·h/mL
- Cmax (Homo sapiens [2]): 424 to 541 ng/mL and 1240 to 1530 ng/mL
- CL/F [3]: 132 to 151 mL/min
- Tmax [3]: 2.9 to 4.2 h
- half-life [3]: 6.2 to 6.3 h
- CL/F (Homo sapiens [4]; dose 120 mg): 119 to 140 mL/min
- Tmax (Homo sapiens [4]; dose 120 mg): 3.1 to 3.2 h
- AUC (Homo sapiens [4]): 6620 to 7560 ng·h/mL and 14200 to 16800 ng·h/mL
- Cmax (Homo sapiens [4]): 557 to 572 ng/mL and 1150 to 1180 ng/mL
